Measurements as given in paper PMC11945486, “TAS1R2/TAS1R3 Single-Nucleotide Polymorphisms Affect Sweet Taste Receptor Activation by Sweeteners: The SWEET Project” (Nutrients, 2025).
No end group written: not given here.

Biological target: T1, human TAS1R2-I234V/TAS1R3-WT (Homo sapiens, UniProt Q7RTX0+Q8TE23, I234V)
T1 construct: expressed in transfected cells; host or cells: HEK293T-Gα16gust44
T1 sequence (Q8TE23 20-839 I234V): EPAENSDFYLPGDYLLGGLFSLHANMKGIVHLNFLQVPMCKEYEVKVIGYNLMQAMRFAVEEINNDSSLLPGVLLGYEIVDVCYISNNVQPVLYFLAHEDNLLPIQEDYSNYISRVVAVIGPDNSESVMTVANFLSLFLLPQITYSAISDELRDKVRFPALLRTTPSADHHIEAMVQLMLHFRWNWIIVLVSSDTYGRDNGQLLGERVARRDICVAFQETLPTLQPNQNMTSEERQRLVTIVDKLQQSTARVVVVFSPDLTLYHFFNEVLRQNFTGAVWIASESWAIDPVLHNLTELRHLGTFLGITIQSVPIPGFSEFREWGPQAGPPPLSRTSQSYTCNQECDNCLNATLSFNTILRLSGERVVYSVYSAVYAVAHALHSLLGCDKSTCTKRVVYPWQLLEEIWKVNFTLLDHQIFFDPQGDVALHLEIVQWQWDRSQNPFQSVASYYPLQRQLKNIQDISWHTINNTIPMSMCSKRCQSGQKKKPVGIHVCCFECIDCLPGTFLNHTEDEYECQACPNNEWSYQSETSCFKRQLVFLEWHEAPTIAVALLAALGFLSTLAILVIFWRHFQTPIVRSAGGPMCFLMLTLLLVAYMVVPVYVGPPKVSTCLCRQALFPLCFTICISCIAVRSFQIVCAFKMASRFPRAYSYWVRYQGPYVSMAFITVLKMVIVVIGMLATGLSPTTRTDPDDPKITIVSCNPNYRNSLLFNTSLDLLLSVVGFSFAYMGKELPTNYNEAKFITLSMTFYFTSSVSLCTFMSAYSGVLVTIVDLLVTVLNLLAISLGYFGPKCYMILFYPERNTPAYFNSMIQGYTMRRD
T1 sequence (Q7RTX0 21-852): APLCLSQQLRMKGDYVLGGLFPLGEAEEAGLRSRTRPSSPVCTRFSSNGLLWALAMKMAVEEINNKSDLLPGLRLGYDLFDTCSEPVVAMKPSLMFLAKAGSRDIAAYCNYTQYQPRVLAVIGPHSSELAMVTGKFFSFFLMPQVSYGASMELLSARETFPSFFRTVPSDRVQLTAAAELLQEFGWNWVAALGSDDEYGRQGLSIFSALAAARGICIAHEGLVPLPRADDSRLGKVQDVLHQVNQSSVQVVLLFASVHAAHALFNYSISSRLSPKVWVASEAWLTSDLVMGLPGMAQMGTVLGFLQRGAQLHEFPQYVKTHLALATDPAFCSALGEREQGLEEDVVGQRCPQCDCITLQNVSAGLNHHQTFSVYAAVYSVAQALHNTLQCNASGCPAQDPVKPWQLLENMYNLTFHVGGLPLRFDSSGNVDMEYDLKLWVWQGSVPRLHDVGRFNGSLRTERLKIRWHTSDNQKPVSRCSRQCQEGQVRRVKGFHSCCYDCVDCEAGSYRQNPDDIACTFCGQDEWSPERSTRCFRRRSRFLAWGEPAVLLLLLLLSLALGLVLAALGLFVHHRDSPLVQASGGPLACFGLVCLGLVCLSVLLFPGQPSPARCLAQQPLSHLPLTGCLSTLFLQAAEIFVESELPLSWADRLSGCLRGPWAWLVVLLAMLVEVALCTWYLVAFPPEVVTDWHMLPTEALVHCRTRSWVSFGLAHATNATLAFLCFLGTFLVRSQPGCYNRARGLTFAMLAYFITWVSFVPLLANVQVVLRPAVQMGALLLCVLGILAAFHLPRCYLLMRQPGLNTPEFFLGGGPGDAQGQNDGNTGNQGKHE
Experiment: Calcium mobilisation assay, TAS1R2 variant I234V with TAS1R3-WT
Type: cell-based
Settings: for Max ΔF/F0: maximal signal amplitude
Source text: The coding sequences for TAS1R2 and TAS1R3 were commercially synthesised, and the human codon was optimised for expression in human cells. The coding sequences of human TAS1R2 and TAS1R3 were subcloned and inserted into the mammalian expression vectors pcDNA6/myc-HisA and pcDNA4/myc-HisA (Invitrogen; Thermo Fisher Scientific; Illkirch, France) between the EcoRI and NotI restriction sites, generating the plasmids pcDNA6-TAS1R2 and pcDNA4-TAS1R3, respectively. To increase protein expression in mammalian cells, an upstream start codon was used, which was a sequence called MAX, corresponding to the QBI SP163 element also described in pcDNA4-HisMax (Invitrogen; Thermo Fisher Scientific; Illkirch, France). To measure the expression level of the receptor by immunohistochemistry, we used the FLAG sequence ([…]) in the C-terminal position, which encodes the FLAG tag epitope. SNP variants of TAS1R2 and TAS1R3 were constructed based on […], respectively, using site-directed mutagenesis (Genewiz; Leipzig, Germany).
The HEK293T cells were kindly provided by Jay P. Slack (Givaudan Flavors Corporation; Cincinnati, OH, USA). HEK293T cells stably transfected with Gα16gust44 [43, 67] were seeded in poly-D-lysine-coated clear-bottom black 96-well plates (0.35 × 10^5 cells/well) in high-glucose DMEM supplemented with 2 mM GlutaMAX, 10% dialysed foetal bovine serum with penicillin/streptomycin and G418 (400 μg/mL) at 37 °C and 6.3% CO2 in a humidified atmosphere as previously reported. […] As a negative control, HEK293T cells were mock-transfected with the empty expression vector. After a further 24 h of incubation, the HEK293T cells were washed with C1 buffer (130 mM NaCl, 5 mM KCl, 10 mM HEPES pH 7.4 and 2 mM CaCl2). The 96-well plates containing the cells were then stimulated with sweet-tasting compounds. […] Different concentration ranges were tested depending on the sweet compound injected. The Ca^2+ changes were expressed as fractional changes in fluorescent light intensity: ΔF/F = (F − F0)/F0, where F was the fluorescent light intensity at each point, and F0 was the value of emitted fluorescent light prior to stimulus application. To calculate dose–response relationships, the changes in fluorescence upon stimulus application were averaged, mock-subtracted and baseline-corrected. The dose–response data obtained were adjusted using a 4-parameter logistic equation. The half-maximal effective concentrations (EC50 values) and maximal signal amplitudes were calculated using SigmaPlot software (version 15.0) (Systat Software; San Jose, CA, USA).
For in vitro calcium mobilisation assay performed on hTAS1R2-SNPs, hTAS1R3-SNPs and mTAS1R3-I60T, 6 to 7 concentrations were tested for each sweet compound, plus buffer alone. All concentration–receptor combinations were measured in duplicate, and each experiment was repeated at least 4 times (8 wells/concentration). Results were expressed for each concentration as ΔF/F mean ± SEM and represented as dose–response curves.

## CC1=CC(=O)NS(=O)(=O)O1 [Acesulfame K, acesulfame K]
  EC50: 510 ± 63 µM
  R1 = Variant EC50/WT EC50: 0.7
  Max ΔF/F0: 0.41 ± 0.02

## O=S(=O)(O)NC1CCCCC1 [Cyclamate, cyclamate]
  EC50: 2250 ± 42 µM

## C[C@H](CC[C@@H](O[C@@H]1O[C@H](CO[C@@H]2O[C@H](CO)[C@@H](O)[C@H](O)[C@H]2O)[C@@H](O)[C@H](O)[C@H]1O[C@@H]1O[C@H](CO)[C@@H](O)[C@H](O)[C@H]1O)C(C)(C)O)[C@H]1CC[C@@]2(C)[C@@H]3CC=C4[C@@H](CC[C@H](O[C@@H]5O[C@H](CO[C@@H]6O[C@H](CO)[C@@H](O)[C@H](O)[C@H]6O)[C@@H](O)[C@H](O)[C@H]5O)C4(C)C)[C@]3(C)[C@H](O)C[C@]12C [Mogroside V, mogroside V]
  EC50: 19.4 ± 1.6 µM
  R1 = Variant EC50/WT EC50: 1.1
  Max ΔF/F0: 1.28 ± 0.04

## COc1ccc(CCC(=O)c2c(O)cc(O[C@@H]3O[C@H](CO)[C@@H](O)[C@H](O)[C@H]3O[C@@H]3O[C@@H](C)[C@H](O)[C@@H](O)[C@H]3O)cc2O)cc1O [NHDC, neohesperidin dihydrochalcone]
  EC50: 94.7 ± 6.8 µM
  R1 = Variant EC50/WT EC50: 1.2
  Max ΔF/F0: 0.80 ± 0.02

## COC(=O)[C@H](Cc1ccccc1)NC(=O)[C@H](CC(=O)O)NCCC(C)(C)C [Neotame]
  EC50: 0.8 ± 0.08 µM
  R1 = Variant EC50/WT EC50: 1.0
  Max ΔF/F0: 0.66 ± 0.02

## C=C(C)[C@@H]1CC=C(/C=N/O)CC1 [Perillartine, perillartine]
  EC50: 20.1 ± 1.1 µM
  R1 = Variant EC50/WT EC50: 1.1
  Max ΔF/F0: 1.52 ± 0.03

## C=C1C[C@@]23CC[C@H]4[C@@](C)(CCC[C@@]4(C)C(=O)O[C@@H]4O[C@H](CO)[C@@H](O)[C@H](O[C@@H]5O[C@H](CO)[C@@H](O)[C@H](O)[C@H]5O)[C@H]4O[C@@H]4O[C@H](CO)[C@@H](O)[C@H](O)[C@H]4O)[C@@H]2CC[C@]1(O[C@@H]1O[C@H](CO)[C@@H](O)[C@H](O[C@@H]2O[C@H](CO)[C@@H](O)[C@H](O)[C@H]2O)[C@H]1O[C@@H]1O[C@H](CO)[C@@H](O)[C@H](O)[C@H]1O)C3 [Rebaudioside M, rebaudioside M]
  EC50: 18.4 ± 0.6 µM
  R1 = Variant EC50/WT EC50: 1.1
  Max ΔF/F0: 1.14 ± 0.01

## OC[C@H]1O[C@H](O[C@]2(CCl)O[C@H](CCl)[C@@H](O)[C@@H]2O)[C@H](O)[C@@H](O)[C@H]1Cl [Sucralose]
  EC50: 60 ± 7 µM
  R1 = Variant EC50/WT EC50: 0.7
  Max ΔF/F0: 0.75 ± 0.03

## brazzein (QDKCKKVYENYPVSKCQLANQCNYDCKLDKHARSGECFYDEKRNLQCICDYCEY; ends and bridges not checked; cysteine pairing not given here; UniProt P56552 1-54, looked up) [sweet-tasting protein obtained by recombinant production using the yeast Pichia pastoris]
  R1 = Variant EC50/WT EC50: 1.1
  Max ΔF/F0: 1.34 ± 0.05

## thaumatin
  R1 = Variant EC50/WT EC50: 1.8
  Max ΔF/F0: 1.25 ± 0.01

B1: thaumatin (protein)
chain: ATFEIVNRCSYTVWAAASKGDAALDAGGRQLNSGESWTINVEPGTKGGKIWARTDCYFDDSGSGICKTGDCGGLLRCKRFGRPPTTLAEFSLNQYGKDYIDISNIKGFNVPMDFSPTTRGCRGVRCAADIVGQCPAKLKAPGGGCNDACTVFQTSEYCCTTGKCGPTEYSRFFKRLCPDAFSYVLDKPTTVTCPGSSNYRVTFCPTA
modifications: Eight disulfides
notes: sweet-tasting plant protein, E957
  EC50: 13.8 ± 0.2 µM
